This test concerns the target T1, HPV-11 E1-E2-DNA origin of replication complex (Human papillomavirus 11, UniProt P04015).
T1 construct: approximately 100-200 ng of purified E1
In words: E2-dependent E1 DNA binding assay (E1-E2 DNA assay). On the procedure: This particular assay determines the ability of a test compound to inhibit the activity (IC50) of HPV-11 DNA replication. More specifically, in the assay described herein, the inhibitory activity of the test compound is evaluated based on its ability to interfere with the E1-E2-DNA origin of replication interaction, thereby inhibiting initiation of viral DNA replication.
This assay was modeled on a similar assay for SV40 T Antigen described by McKay (J. Mol. Biol., 1981,145:471). A 400 bp radiolabeled DNA probe, containing the HPV-11 origin of replication (Chiang et al., 1992, Proc. Natl. Acad. Sci. USA 89:5799) was produced by pcr, using plasmid pBluescript™ SK encoding the origin (nucleotides 7886-61 of the HPV-11 genome in unique BAMH1 site) as template and primers flanking the origin. Radiolabel was incorporated as [^33P]dCTP. Binding assay buffer consisted of: 20 mM Tris pH 7.6, 100 mM NaCl, 1 mM DTT, 1 mM EDTA.
Other reagents used were protein A-SPA beads (type II, Amersham) and K72 rabbit polyclonal antiserum, raised against a peptide corresponding to the C-terminal 14 amino acids of HPV-11 E1. Following the protocol from Amersham, one bottle of beads was mixed with 25 mL of binding assay buffer. For the assay, a saturating amount of K72 antiserum was added to the beads and the mixture was incubated for 1 h, washed with one volume of binding assay buffer, and then resuspended in the same volume of fresh binding assay buffer. Binding reactions contained 8 ng of E2, approximately 100-200 ng of purified E1, and 0.4 ng of radiolabeled probe in a total of 80 μL of binding assay buffer. After 1 h at room temperature, 25 μL of K72 antibody-SPA bead suspension was added to with the binding reaction and mixed. After an additional hour of incubation at room temperature, the reactions were centrifuged briefly to pellet the beads and the extent of complex formation was determined by scintillation counting on a Packard TopCount™. Typically, the signal for reactions containing E1 and E2 was 20-30 fold higher than the background observed when either E1, E2, or both was omitted.

Setting [1] is: Table 1A, enantiomerically pure cis/cis isomer (form 1).
Where [2] appears, read: Table 1, racemic cis/cis isomer (form 1).

T1 sequence (P04015 whole entry, one chain of several): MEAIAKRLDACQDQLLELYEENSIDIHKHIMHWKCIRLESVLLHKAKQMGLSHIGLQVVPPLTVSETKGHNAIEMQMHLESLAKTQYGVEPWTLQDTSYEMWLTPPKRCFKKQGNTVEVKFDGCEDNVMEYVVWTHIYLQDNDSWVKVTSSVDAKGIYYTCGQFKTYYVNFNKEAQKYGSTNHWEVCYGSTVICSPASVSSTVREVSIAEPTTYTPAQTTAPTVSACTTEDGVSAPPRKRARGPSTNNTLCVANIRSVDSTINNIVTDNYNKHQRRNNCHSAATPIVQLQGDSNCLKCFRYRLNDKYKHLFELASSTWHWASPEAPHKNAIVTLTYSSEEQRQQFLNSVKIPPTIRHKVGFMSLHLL

For orientation: IC50 means the concentration that inhibits the measured activity by half. Read a low IC50 as greater potency. In turn, `Cc1ccc2c(c1)C(=O)C1(OC(c3ccc(Cl)c(Cl)c3)C(C(=O)Nc3ccc(-c4csnn4)cc3)C1C(=O)O)C2=O` (single isomer, unassigned) [A1007] showed a half-maximal inhibitory concentration (IC50) under setting [1] of 0.5 to 5 µM.
As for `Cc1ccc2c(c1)C(=O)C1(OC(c3ccc(Cl)c(Cl)c3)C(C(=O)Nc3ccc(-c4csnn4)cc3)C1C(=O)O)C2=O` (single isomer, unassigned) [A1008], under setting [1], the IC50 is less than 0.5 µM.
Under setting [2], `CCCCNC(=O)C1C(c2ccc(Cl)c(Cl)c2)OC2(C(=O)c3ccccc3C2=O)C1C(=O)O` (stereo not shown) [compound 1050] displayed a 50% inhibitory concentration (IC50) of 0.5 to 5 µM.
Regarding `CC(=O)c1ccc(NC(=O)C2C(c3ccc(Cl)c(Cl)c3)OC3(C(=O)c4cc5ccccc5cc4C3=O)C2C(=O)O)cc1` (stereo not shown) [compound 1090], the IC50 under setting [2] is 5 to 50 µM.
For the compound `CC(=O)c1ccc(NC(=O)C2C(c3ccc(Cl)c(Cl)c3)OC3(C(=O)c4ccc5ccccc5c4C3=O)C2C(=O)O)cc1` (stereo not shown) [compound 1091], under setting [2], the IC50 fell in the range of 5 to 50 µM.
`CC(=O)c1ccc(NC(=O)C2C(c3ccc(Cl)c(Cl)c3)OC3(C(=O)c4ccc5ccccc5c4C3=O)C2C(=O)O)cc1` (stereo not shown) [compound 1095] registered an IC50 under setting [2] of 5 to 50 µM.
`CC(=O)c1ccc(NC(=O)C2C(/C=C/c3ccccc3)OC3(C(=O)c4ccccc4C3=O)C2C(=O)O)cc1` (stereo not shown) [compound 4005] had an IC50 (Table 4, racemic cis/cis isomer (form 1)) of 5 to 50 µM.
